Counter-ions that a name gives are not always drawn. Like-named read-outs stand apart in the source and are kept apart here.

Broadly, the EC50 is the concentration giving half of the maximal effect. For orientation: IC50 means the point on the concentration scale where inhibition reaches its midpoint. For orientation: melting point means the temperature, or range, at which the solid turns liquid.

For series [1], the target named is PSP24 PLGFR (Xenopus laevis, UniProt P79945). The experiment in a line: Xenopus oocyte assay: LPA-induced oscillatory chloride currents (two-electrode voltage clamp). The following applies: for threshold to elicit a response alone: compound alone, agonist response; for inhibition of LPA-induced chloride currents: Xenopus oocytes, extracellular application; for reversibility of inhibition of LPA-induced chloride currents: after washing the oocyte. Type of series: cell-based. The protocol: Xenopus oocytes which endogenously express PSP24 PLGFR were used to screen the newly designed and synthesized compounds for their LPA inhibitory activity.
(§1) Oocytes were obtained from xylazine-anesthetized adult Xenopus laevis frogs (Carolina Scientific, Burlington, N.C.) under aseptic conditions and prepared for experiment. […] Oocytes were kept in Barth's solution in an incubator between 17-20° C. and were used for 2-7 days after isolation.
Electrophysiological recordings were carried out using a standard two-electrode voltage-clamp amplifier holding the membrane potential at −60 mV (GeneClamp 500, Axon Instruments, Calif.). […] Membrane currents were recorded with a NIC-310 digital oscilloscope (Nicolet, Madison, Wis.). Applications were made at intervals of 15 mins (minimum) to allow for the appropriate washout and recovery from desensitization.
as §1
Electrophysiological recordings were carried out using a standard two-electrode voltage-clamp amplifier holding the membrane potential at −60 mV (GeneClamp 500, Axon Instruments, CA). […] Membrane currents were recorded with a NIC-310 digital oscilloscope (Nicolet, Madison, Wis.). Applications were made at intervals of 15 mins (minimum) to allow for the appropriate washout and recovery from desensitization.
A general note: Two-electrode voltage clamp is typically applied to oocytes expressing channels or transporters.

Series [2] concerns PC-3 prostate cancer cell line. The experiment in a line: Cytotoxicity / growth inhibition (SRB), PC-3. To be noted: 96 hours drug exposure, read-out: IC50 ± SEM, PC-3. Type of series: cell-based. The procedure:
(§2) Cells were removed from stock flasks using trypsin, centrifuged, resuspended in fresh media, and plated at a density of approximately 2,000 cells/well in 96-well culture plates. Final drug concentrations ranged from 0.05 to either 10 or 50 μM. Control experiments with no drug added (negative control) and 5-fluorouracil added (positive control) were performed in parallel. Media was removed and replaced at 48 hours to minimize the effects of drug degradation during the course of the experiment. After 96 hours drug exposure, cells were fixed by the addition of cold 50% trichloroacetic acid (TCA) and incubation at 4° C. for 1 hour. Fixed cells were stained with sulforhodamine B (SRB), and cell number was determined by comparison of absorbance at 540 nm, as compared to a standard curve of cell number versus absorbance. Experiments were performed in duplicate.

In series [3] the target is T1, human Edg-2 (Homo sapiens, UniProt Q92633).
T1 construct: expressed in transfected cells
Kind of series: Ca2+ responses (Fura-2) in RH7777 cells expressing Edg-2. Type of series: cell-based. The protocol:
(§3) RH7777 cells were transfected with the cDNA constructs encoding human Edg-2, Edg-4, or Edg-7 and then were subcloned into the pCDNA3 expression vector using the Cytofectene transfection reagent according to the manufacturers' protocol. Transfected cells were selected in DMEM containing 10% FBS and 1 mg/ml geneticin. Resistant cells were collected and subcloned by limiting dilution. The resulting clones were then screened using functional assays and RT-PCR analysis. Data are representative of three individual clones.

For series [4], the system named is LNCaP prostate cancer cell line. Kind of series: Cytotoxicity / growth inhibition (SRB), LNCaP. Type of series: cell-based. The following applies: 96 hours drug exposure, read-out: IC50 ± SEM, LNCaP. The procedure: as §2
Series [5] addresses T2, human Edg-7 (Homo sapiens, UniProt Q9UBY5).
T2 construct: Flag; expressed in transfected cells
T2 sequence (Q9UBY5 1-353): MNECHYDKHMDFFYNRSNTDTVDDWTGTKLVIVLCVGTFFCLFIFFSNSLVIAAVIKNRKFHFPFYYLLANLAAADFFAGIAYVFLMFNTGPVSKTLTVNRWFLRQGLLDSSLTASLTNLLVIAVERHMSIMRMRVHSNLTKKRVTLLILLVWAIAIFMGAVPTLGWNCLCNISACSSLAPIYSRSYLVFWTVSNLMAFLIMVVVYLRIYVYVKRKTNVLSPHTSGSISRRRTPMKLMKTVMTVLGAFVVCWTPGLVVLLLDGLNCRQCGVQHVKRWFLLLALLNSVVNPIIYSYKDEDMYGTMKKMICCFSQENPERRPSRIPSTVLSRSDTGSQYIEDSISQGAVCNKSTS
Kind of series: Ca2+ responses (Fura-2) in RH7777 cells expressing Edg-7. The following applies: for effect on LPA-elicited Ca2+ responses: 250 nM LPA 18:1 mixed with 500 nM lipid. Type of series: cell-based. The procedure: as §3

The subject of series [6] is DU-145 prostate cancer cell line. Kind of series: Cytotoxicity / growth inhibition (SRB), DU145. To be noted: read-out: IC50 ± SEM, DU145. Type of series: cell-based. The procedure:
as §2

The target of series [7] is T3, human Edg-4 (Homo sapiens, UniProt Q9HBW0).
T3 construct: expressed in transfected cells
The experiment in a line: Ca2+ responses (Fura-2) in RH7777 cells expressing Edg-4 (stable or transient). Type of series: cell-based.
Description: RH7777 cells, stably expressing human Edg-4, were kindly provided by Dr. Kevin Lynch (University of Virginia, Charlottesville, Va.). Flag-tagged cDNA's encoding human Edg-4 and -7 inserted into the pCDNA3 expression plasmid (Invitrogen, Carlsbad, Calif.), were a generous gift from Dr. Junken Aoki (University of Tokyo, Tokyo, Japan). RH7777 and NIH3T3 cells were obtained from the American Type Culture Collection (Manassas, Va.). HEY cells were provided by Dr. Lisa Jennings (University of Tennessee, Memphis). All cell lines were maintained in Dulbecco's Modified Eagle's Medium (DMEM) containing 10% FBS and 2 mM glutamine. Oocytes were obtained from adult Xenopus laevis frogs as previously described (Tigyi et al., 1999).
as §3
RH7777 cells were plated on polylysine-coated glass coverslips (Bellco, Vineland, N.J.) one day prior to transfection. The following day, cells were transfected overnight (16-18 hr) with 1 μg of plasmid DNA mixed with 6 μl of Cytofectene. The cells were then rinsed twice with DMEM and cultured in DMEM containing 10% FBS. The next day, the cells were rinsed with DMEM and serum was withdrawn for a minimum of 2 hr prior to monitoring intracellular Ca^2+.

Setting [8] is: 250 nM LPA 18:1 mixed with 10 μM lipid.
[9] abbreviates: Homo sapiens, DU-145, 96 hours drug exposure.
The mark [10] stands for this setting: LPA 18:1 near the EC50 combined with compound 108.
[11] abbreviates: alone, concentrations as high as 10 μM.
Setting [12] is: mixture of LPA 8:0 and LPA 18:1.

Sequence of PSP24 PLGFR (P79945 whole entry): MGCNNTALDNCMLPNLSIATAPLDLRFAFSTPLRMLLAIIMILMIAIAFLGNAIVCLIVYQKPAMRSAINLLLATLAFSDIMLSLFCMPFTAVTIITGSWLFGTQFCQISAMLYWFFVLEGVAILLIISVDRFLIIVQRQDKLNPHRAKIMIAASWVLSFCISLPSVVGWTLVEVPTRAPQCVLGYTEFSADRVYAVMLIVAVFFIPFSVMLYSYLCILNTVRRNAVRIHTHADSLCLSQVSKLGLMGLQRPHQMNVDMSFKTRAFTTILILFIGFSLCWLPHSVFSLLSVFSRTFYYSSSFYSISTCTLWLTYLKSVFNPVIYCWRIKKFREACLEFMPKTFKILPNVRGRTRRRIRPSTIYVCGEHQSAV
T1 sequence (Q92633 whole entry): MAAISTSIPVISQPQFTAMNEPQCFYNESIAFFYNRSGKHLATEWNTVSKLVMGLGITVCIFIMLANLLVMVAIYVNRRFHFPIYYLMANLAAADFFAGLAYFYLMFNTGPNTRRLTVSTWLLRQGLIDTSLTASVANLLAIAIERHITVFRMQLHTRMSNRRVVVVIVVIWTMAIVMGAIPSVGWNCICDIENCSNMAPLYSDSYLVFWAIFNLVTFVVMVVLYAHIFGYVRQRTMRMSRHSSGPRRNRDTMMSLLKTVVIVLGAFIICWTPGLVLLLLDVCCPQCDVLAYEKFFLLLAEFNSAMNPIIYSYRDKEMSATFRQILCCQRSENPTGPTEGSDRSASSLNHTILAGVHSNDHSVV
T3 sequence (Q9HBW0 whole entry): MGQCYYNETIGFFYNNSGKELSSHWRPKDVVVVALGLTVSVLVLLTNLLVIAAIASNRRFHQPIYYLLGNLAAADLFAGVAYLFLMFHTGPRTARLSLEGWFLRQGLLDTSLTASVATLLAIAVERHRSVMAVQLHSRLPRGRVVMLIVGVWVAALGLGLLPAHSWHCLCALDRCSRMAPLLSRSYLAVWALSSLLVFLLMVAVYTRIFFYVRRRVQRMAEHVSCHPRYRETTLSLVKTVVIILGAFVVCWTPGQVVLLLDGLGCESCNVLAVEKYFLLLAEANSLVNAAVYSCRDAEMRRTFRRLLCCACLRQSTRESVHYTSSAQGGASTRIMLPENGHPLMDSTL

Consider lysophosphatidic acid [LPA (18:1)], for which the concentration for a half-maximal effect (EC50) in series [1] (LPA alone, FIG. 37, read-out: EC50 of LPA alone (positive control solution)) is 0.025 µM; in series [3] (stable Edg-2 expressing cells, read-out: EC50, Ca2+ transients), 0.378 ± 0.053 µM. Besides, in series [2], the IC50 was found to be 28.5 ± 6.3 µM.

Turning to `CCCCCCCCCCCCCCCCOCC(COP(=O)(O)O)OP(=O)(O)O` (stereo not shown) [Compound 68, 1,2-(3-Hexadecyloxypropane)-bis(dihydrogen phosphate)], in series [1], the “threshold to elicit a response alone” value was ~10 nM. Further, the IC50 in series [4] is 29.3 ± 21.7 µM.

On to `CCCCCCCCCCCCCCCCCCNC(=O)C(N)COP(=O)(O)O` (stereo not shown) [Compound 57, 2-Amino-3-(octadecylamino)-3-oxopropyl dihydrogen phosphate], for which, in series [1], the “inhibition of LPA-induced chloride currents” value is given as “inhibitors of LPA-induced chloride current” and the “reversibility of inhibition of LPA-induced chloride currents” value is recorded as “reversible”.

For `CCCCCCCCCCCCCCNC(=O)C(N)COP(=O)(O)O` (stereo not shown) [Compound 56, 2-Amino-3-oxo-3-(tetradecylamino)propyl dihydrogen phosphate], in series [1], the “inhibition of LPA-induced chloride currents” value is “inhibitors of LPA-induced chloride current” and the “reversibility of inhibition of LPA-induced chloride currents” value is reported as “reversible”.

As to `CCCCCCCCCCCCCCCCCCNC(=O)C(N)CO.O=C(O)C(F)(F)F` (stereo not shown), the melting point lay in the range of 170 to 172 °C.

Take `CCCCCCCCCCCCOCC(COP(=O)(O)O)OP(=O)(O)O` (stereo not shown) [Compound 67, 1,2-(3-Dodecyloxypropane)-bis(dihydrogen phosphate)]: the “threshold to elicit a response alone” value in series [1] is ~1000 nM. The IC50 in series [4] was determined as 25.2 ± 12.3 µM.

For the compound diacyl glycerol [DAG 18:1], in series [3] (setting [8]), the “inhibitory effect on LPA-elicited Ca2+ response” value was “no longer had an inhibitory effect”. Further, in series [5], the “effect on LPA-elicited Ca2+ responses” value is “did not have an inhibitory effect”.

The compound `CCCCCCCCCCCCCCNC(=O)C(CO)NC(=O)OC(C)(C)C` (stereo not shown) [Compound 27, tert-Butyl N-[1-(hydroxymethyl)-2-oxo-2-(tetradecylamino)ethyl]carbamate] yielded a melting point of 59 to 62 °C. The IC50 in series [6] (setting [9]) was 19.7 ± 6 µM. Moreover, the IC50 in series [2] is > 50 µM. The IC50 in series [4] (Homo sapiens, LNCaP) amounted to 10.9 ± 2.7 µM.

For the compound `CCCCCCCCCCCCCCOc1ccc(NC(=O)C(N)CO)cc1` (stereo not shown) [Compound 38, N-1-[4-(tetradecyloxy)phenyl]-2-amino-3-hydroxypropanamide trifluoroacetate], the IC50 in series [6] (96 hours drug exposure) turned out to be 38.9 ± 8.9 µM.

With `CCCCCCCCCCCCC/C=C/[C@@H](O)[C@@H](N)COP(=O)(O)O` [SPP (13:0), sphingosine-1-phosphate], the IC50 in series [6] (setting [9]) is > 10 µM; in series [2], > 50 µM.

For the compound `O=c1[nH]cc(F)c(=O)[nH]1` [Fluorouracil, 5-fluorouracil], the IC50 in series [6] (setting [9]) was 6.8 ± 3.3 µM; in series [2], 10.2 ± 4.1 µM; in series [4] (Homo sapiens, LNCaP), 2.8 ± 1.6 µM.

Take diacyl glycerol [DAG 8:0]: the “Ca2+ response, % of control” value in series [3] (setting [8]) is on record as 64 % of control. Also, in series [5], the “effect on LPA-elicited Ca2+ responses” value is reported as “significantly increased the Ca^2+ responses”.

Take `CCCCCCCCCCCCCCNC(=O)C(COP(=O)(OCc1ccccc1)OCc1ccccc1)NC(=O)OC(C)(C)C` (stereo not shown) [Compound 51, tert-Butyl N-[1-{([di(benzyloxy)phosphoryl]oxy)methyl}-2-oxo-2-(tetradecylamino)ethyl]carbamate]: the melting point lay in the range of 33 to 35 °C. Also, in series [6] (setting [9]), the IC50 is 8.1 ± 1.3 µM. For the same compound, in series [2], the IC50 was 25.4 ± 3.6 µM. In addition, in series [4] (Homo sapiens, LNCaP), the IC50 is 19.9 ± 6.4 µM.

With `CCCCCCCCCCCCOP(=O)(O)O` [Compound 108, Phosphoric Acid Monododecyl Ester], the “Ca2+ responses, % of control” value is given as “about 63 % of control” in series [3] (setting [10]), “about 148 % of control” in series [7] (setting [10]) and ~56 % of control in series [5] (setting [10]).

With `CCCCCCCCCCCCCCCCCCCC(=O)OCC(COP(=O)(O)O)OP(=O)(O)O` (stereo not shown) [Compound 91, 1,2-(3-Icosanoyloxypropane)-bis(dihydrogen phosphate)], the IC50 in series [6] (96 hours drug exposure) amounted to 42.2 ± 1.9 µM.

Turning to lysophosphatidic acid [LPA 8:0], the “Ca2+ response elicited alone” value in series [3] (setting [11]), in series [7] (setting [11]) and in series [5] (setting [11]) was “unable to elicit Ca^2+ responses” throughout. Moreover, the “effect of mixture with LPA 18:1 on Ca2+ responses” value in series [3] (setting [12]) was “not effected”; in series [7] (mixture of LPA 8:0 and LPA 18:1, stable cells), “not effected”; in series [5] (setting [12]), “not effected”. Moreover, in series [5], the “effect on LPA-elicited Ca2+ responses” value was “had no effect”.

In turn, `CCCCCCCCCCCCCCNC(=O)C(N)CO.O=C(O)C(F)(F)F` (stereo not shown) [Compound 36, N-1-tetradecyl-2-amino-3-hydroxypropanamide trifluoroacetate] yielded a melting point of 168 to 171 °C. In series [1], the “inhibition of LPA-induced chloride currents” value is recorded as “best inhibitor among the non-phosphorylated derivatives”.

As to `CCCCCCCCCCCCCCCCCC(=O)OCC(COP(=O)(O)O)OP(=O)(O)O` (stereo not shown) [Compound 89, 1,2-(3-Octadecanoyloxypropane)-bis(dihydrogen phosphate)], in series [1] (against 2 nM LPA, compound concentration not given), the “inhibition of LPA-induced response” value came out at 59%.

Take `CCCCCCCCCCCCCCCCCCC(=O)OCC(COP(=O)(O)O)OP(=O)(O)O` (stereo not shown) [Compound 90, 1,2-(3-Nonadecanoyloxypropane)-bis(dihydrogen phosphate)]: the half-maximal inhibitory concentration (IC50) in series [6] (96 hours drug exposure) is > 50 µM.

For `CCCCCCCCCCCCCCCCCCCCCC(=O)OCC(COP(=O)(O)O)OP(=O)(O)O` (stereo not shown) [Compound 92, 1,2-(3-Docosanoyloxypropane)-bis(dihydrogen phosphate)], in series [1], the “inhibition of LPA-induced chloride currents” value is “inhibitors of LPA-induced chloride current” and the “reversibility of inhibition of LPA-induced chloride currents” value was “reversible”.

As for `CCCCCCCCCCCCCC(=O)OCC(COP(=O)(O)O)OP(=O)(O)O` (stereo not shown) [Compound 85, 1,2-(3-Tetradecanoyloxypropane)-bis(dihydrogen phosphate)], the “threshold to elicit a response alone” value in series [1] is recorded as ~100 nM. In series [4], the IC50 was 11.6 ± 10.3 µM.
